According to patent US5646138A, “Contignasterol compounds and pharmaceutical compositions comprising the same” (University of British Columbia, priority 1992, dated 1997):
“Also recorded” adds a separate entry of the source.

Key:
[1] = test system: platelets; assay: platelet aggregation caused by collagen; type: cell-based
Text: (§1) PAF is a local mediator of thrombosis. Similarly, collagen exposure of vessel walls leads to the formation of […] clot in the vessels. Therefore, prevention of the formation of blood clots has direct implication in the treatment of thrombosis and associated cardiovascular diseases.
(§2) PAF and collagen were used at their maximal concentrations which induced 100% aggregation of platelets.

[2] = test system: tracheal tissues; assay: ovalbumine (antigen)-induced contraction of tracheal tissues from sensitized guinea pigs; type: cell-based, guinea pig; conditions: antigen ovalbumine (OA)
Text: We have used the contignasterol as defined in paragraph one of the Summary to block bronchoconstriction induced in guinea pigs. Guinea pigs were sensitized to ovalbumine (OA) that can serve as an antigen. The trachea from these animals after exposure to the antigen (OA) contracted in a similar manner as to in vivo situation.

[3] = test system: platelets; assay: platelet aggregation caused by platelet activating factor (PAF); type: cell-based
Text: as §1, §2

[4] = test system: allergen-induced challenge; assay: relative potencies of different isomers of contignasterol against allergen-induced challenge
Text: Table 4 illustrates the relative potencies of different isomers of contignasterol against allergen-induced challenge.

[5] = test system: rat mast cells; conditions: induced by anti-IgE; cited from earlier work

With `CC(C)C1CC(O)OC([C@@H](C)[C@H]2CC(=O)[C@@H]3[C@@H]4[C@@H](O)[C@H](O)[C@H]5[C@@H](O)[C@H](O)CC[C@]5(C)[C@H]4CC[C@]23C)C1` (some centres unmarked) [Compound 1, contignasterol] the “aggregation of platelets caused by collagen (in words)” value [1] was “inhibited aggregation of platelets”, the “contraction of trachea pretreated with contignasterol after exposure to antigen (in words)” value [2] was “did not significantly contract; also recorded: inhibited airway smooth muscle contraction” and the “aggregation of platelets caused by PAF (in words)” value [3] was “inhibited aggregation of platelets”. The inhibition at 10 µM [4] was 43%.
For `CC(C)C1CC(O)OC([C@@H](C)[C@H]2CC(=O)[C@H]3[C@@H]4[C@@H](O)[C@H](O)[C@H]5[C@@H](O)[C@H](O)CC[C@]5(C)[C@H]4CC[C@]23C)C1` (some centres unmarked) [Compound 2, 14-epicontignasterol], the inhibition at 10 µM [4] was 25%.
In the case of `COC1CC(C(C)C)CC([C@@H](C)[C@H]2CC(=O)[C@@H]3[C@@H]4[C@@H](O)[C@H](O)[C@H]5[C@@H](O)[C@H](O)CC[C@]5(C)[C@H]4CC[C@]23C)O1` (some centres unmarked) [Compound 3, Methyl-acetal Contignasterol], the inhibition at 10 µM [4] is reported as 12%.
In the case of `CC(C)C[C@]1(O)C[C@@H](C)[C@H]2[C@@H]1C(=O)[C@@H]1[C@@H]3[C@@H](O)[C@H](O)[C@H]4C[C@H](O)CC[C@]4(C)[C@H]3CC[C@]21C` [xestobergsterol A, 23S-16β, 23-cyclo-3α, 6α, 7β, 23-tetrahydroxy-5α, 14β-cholestan-15-one], the “inhibition of histamine release from rat mast cells (in words)” value [5] is listed as “potent inhibitors of histamine release”.
In the case of `CC(C)C[C@]1(O)C[C@@H](C)[C@H]2[C@@H]1C(=O)[C@@H]1[C@@H]3[C@@H](O)[C@H](O)[C@H]4C[C@H](O)[C@@H](O)[C@@H](O)[C@]4(C)[C@H]3CC[C@]21C` [xestobergsterol B, 23S-16β, 23-cyclo-1β, 2β, 3α, 6α, 7β, 23-hexahydroxy-5α, 14β-cholestan-15-one], the “inhibition of histamine release from rat mast cells (in words)” value [5] is listed as “potent inhibitors of histamine release”.
